US20120122908A1, “Novel C-4 Substituted Retinoids” (University of Maryland, priority 2000, published 2012)

Assays:
[1] = target: T1, CYP17 (17-lyase) (Homo sapiens, UniProt P05093); assay: Selectivity: effect on CYP17 (17-lyase); format: biochemical; details: concentration as high as 5 μM
T1 sequence (P05093 1-508): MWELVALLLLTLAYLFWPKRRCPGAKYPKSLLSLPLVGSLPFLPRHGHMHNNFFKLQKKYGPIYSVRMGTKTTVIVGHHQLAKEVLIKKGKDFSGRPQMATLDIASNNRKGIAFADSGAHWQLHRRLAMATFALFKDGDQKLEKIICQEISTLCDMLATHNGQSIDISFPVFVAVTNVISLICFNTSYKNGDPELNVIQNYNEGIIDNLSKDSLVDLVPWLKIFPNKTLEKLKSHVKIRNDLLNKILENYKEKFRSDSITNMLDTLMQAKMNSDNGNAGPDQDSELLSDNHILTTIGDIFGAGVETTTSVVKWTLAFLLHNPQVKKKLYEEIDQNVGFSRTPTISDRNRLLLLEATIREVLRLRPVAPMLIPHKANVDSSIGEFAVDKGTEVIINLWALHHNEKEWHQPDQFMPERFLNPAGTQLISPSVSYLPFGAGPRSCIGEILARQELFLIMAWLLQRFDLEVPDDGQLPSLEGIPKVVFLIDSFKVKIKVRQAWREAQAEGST
Procedure: The selectivity of the compounds of the present invention towards ATRA-4-hydroxylase was tested by measuring the effect on the key enzymes in the biosynthesis of estradiol and dehydroepiandrosterone, CYP19 (aromatase) and CYP17 (17-lyase), respectively.

[2] = target: T2, RAR ? (Homo sapiens, UniProt P10826); assay: Competitive [3H]ATRA binding to recombinant RAR (third subtype); details: for binding to RAR (third subtype): concentrations up to 500 nM
T2 construct: Recombinant full-length RAR proteins were expressed as S-Tag fusion proteins in BL21 E. coli cells; S-Tag; made in house; host or cells: E. coli BL21
T2 sequence (P10826 1-455): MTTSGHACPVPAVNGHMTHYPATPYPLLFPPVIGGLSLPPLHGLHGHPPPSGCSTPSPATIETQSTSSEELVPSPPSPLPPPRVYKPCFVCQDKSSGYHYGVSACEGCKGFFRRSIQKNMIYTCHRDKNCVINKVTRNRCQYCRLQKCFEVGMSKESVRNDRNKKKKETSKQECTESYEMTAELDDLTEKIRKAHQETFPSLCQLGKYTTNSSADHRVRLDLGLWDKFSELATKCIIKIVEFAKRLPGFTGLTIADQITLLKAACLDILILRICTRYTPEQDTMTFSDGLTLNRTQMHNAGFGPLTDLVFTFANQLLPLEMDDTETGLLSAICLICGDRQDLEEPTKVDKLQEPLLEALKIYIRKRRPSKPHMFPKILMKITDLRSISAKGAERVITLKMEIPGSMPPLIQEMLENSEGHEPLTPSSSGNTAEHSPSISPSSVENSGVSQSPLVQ
Source text: Because the novel compounds are retinoid-related analogs, they bind to the retinoid receptors in vivo and thus have increased therapeutic potentials. Similar to ATRA, these novel compounds act as a ligand for the retinoic acid receptors (RARs, α, β, and γ) but not the retinoid X receptors (RXRs, α, β, and γ). […] (Nervi C, Grippo J F, Sherman M I, George M D, Jetten A M, Identification and characterization of nuclear retinoic acid-binding activity inhuman myeloblastic leukemia HL-60 cells, Proc Natl Acad Sci USA 86: 5854-5858, 1989) The dissociation constants for the inhibitors is determined by the well described charcoal absorption method (Yang N, Schule R, Mangelsdorf D J, Evans R M, Characterization of DNA binding and retinoic acid binding properties of retinoic acid receptor, Proc Natl Acad Sci USA 88: 3559-3663, 1991). Briefly, serial dilutions of the novel compounds (10^−11 to 10^−5 M) in dimethyl sulfoxide, 100 μL each is used. 12 mg of crude cytosolic extracts is prepared from pET15b (Novagen, Madison, Wis.)/hRAR-α, -β, and -γ prepared protein is used for each data point. All reactions are conducted in binding buffer (60 mM Na imidazole, 500 mM NaCl, 20 mM Tris, pH 7.9) for 14-16 hours at 4° C. in a final volume of 1 mL. Unbound [^3H]ATRA is removed by addition of 0.5 mL of equivalent-sized dextran-treated charcoal (final concentration 3% [wt/vol]) for 15 minutes at 4° C. […]
Since the RAMBAs are retinoic acid analogs, it is possible that some of the compounds may bind to retinoid receptors and function as either transcriptional agonists/antagonists or may display anti AP-1 activity (Chambon P, A decade of molecular biology of retinoic acid, FASEB J 10: 5899-5904, 19962. The ability of three RAMBAs, VN/14-1, VN/50A-1 and VN/66-1 to bind to the individual RAR receptors was thus evaluated in vitro. Recombinant full-length RAR proteins were expressed as S-Tag fusion proteins in BL21 E. coli cells used for competitive binding assays. Each competition-binding assay contained 1 nM [^3H] […]

Compound | inhibition of CYP17 (17-lyase) [1] | binding to RAR (third subtype) [2] | IC50 ([2]; 1 nM [3H]ATRA, competitor 1 nM to 500 nM) [nM]
CC(C=CC1=C(C)C(n2ccnc2)CCC1(C)C)=CC=CC(C)=CC(=O)n1ccnc1 (stereo not drawn) [VN/50A-1] | barely inhibited | did not bind | –
CC(C=CC1=C(C)C(n2ccnc2)CCC1(C)C)=CC=CC(C)=CC(=O)Nc1ccc(O)cc1 (racemic) [VN/66-1, (±)-4-(1H-imidazol-1-yl), N-(4′-hydroxyphenyl)retinamide] | barely inhibited | did not bind | –
CC1=C(/C=C/C(C)=C/C=C/C(C)=C/C(=O)O)C(C)(C)CCC1n1ccnc1 (racemic) [VN/14-1, (±)-4-(1H-imidazole-1-yl)retinoic acid] | barely inhibited | – | ~200
